One experiment relates to IL-1β. Nature of the experiment: Serum IL-1β following UV exposure. Type of experiment: in vivo, mouse. As to the method: (§1) SKH-1 hairless mice were treated with 10 mg/kg POH-LA conjugate freshly prepared daily. The POH-LA conjugate was formulated in glycerol:ethanol (90:10) while the control animals received the glycerol:ethanol vehicle only or the commercially available sunblock (Well & Good Sun Protection Wipes SPF 15). Additional test groups were treated with POH formulated in the glycerol:ethanol vehicle or linoleic acid formulated in the glycerol:ethanol vehicle. 50 μL of each formulation was placed on a area 1 cm^2 area that was exposed to the UV light. The mice were treated with their respective formulations after exposure to the UV light. In FIG. 22A, the mouse was treated with sunblock. In FIG. 22B, the mouse was treated with POH. In FIG. 22C, the mouse was treated with linoleic acid. In FIG. 22D, the mouse was treated with POH-LA conjugate. In FIG. 22D, the mouse was treated with the glycerol:ethanol vehicle only. The POH-LA conjugate, POH or linoleic acid solutions were gently spread on the skin surface and allowed to air dry. The sunblock mouse was gently wiped on the exposure area with the sunblock towelette. This exposure and treatment went on for a maximum of 10 weeks. Throughout the experimental period the animals were photographed and weighed. At the end of the experimental period the mice were photographed and euthanized, followed by skin and blood collection. Blood was analyzed for markers of inflammation and DNA recovered from the exposed area of the skin and analyzed for markers of DNA damage.
(§2) Furthermore, blood samples were taken from each mouse 4 hours after the last cutaneous treatment. About 0.5 mL of blood was collected by cardiac puncture […]. Serum was aliquoted in Eppendorf tubes and store at −80° C. as preparation for cytokine analyses. […]
(§3) Mice were treated with 10 mg/kg POH-LA conjugate freshly prepared daily. […] Blood was analyzed for markers of inflammation and DNA recovered from the exposed area of the skin and analyzed for markers of DNA damage.

Another experiment deals with IL-6. Description: Serum IL-6 following UV exposure. Type of experiment: in vivo, mouse. The procedure: as §1, with “In FIG. 22D, the mouse was treated with the glycerol:ethanol vehicle only.” left out
as §2, §3

Each structure is given as a SMILES string.

As to `C=C(C)[C@@H]1CC=C(CO)CC1` [POH, perillyl alcohol], the “IL-1β serum levels increase” value with IL-1β was 8.5 ± 3.0 pg/mL. For the same compound, in the experiment with IL-6, the IL-6 levels was found to be 17.9 ± 2.8 pg/mL.

For the compound `C=C(C)[C@@H]1CC=C(COC(=O)CCCCCCC/C=C\C/C=C\CCCCC)CC1` [POH-LA conjugate, Octadeca-9,12-dienoic acid 4-isopropenyl-cyclohex-1-enylmethyl ester], the “IL-1β serum levels increase” value in the experiment with IL-1β was 6.4 ± 2.5 pg/mL. This compound showed an IL-6 levels in the experiment with IL-6 of 15.2 ± 4.1 pg/mL.

The values above are taken from patent US20240197891A1, “PHARMACEUTICAL COMPOSITIONS COMPRISING POH DERIVATIVES” (UNIVERSITY OF SOUTHERN CALIFORNIA, priority 2021, published 2024).
